Measured values from patent publication US8778896B2, “Levoisovalerylspiramycin I, II or III, preparations, preparation methods and uses thereof” (Shenyang Tonglian Group Co., Ltd., priority 2010, dated 2014).

Key:
[1] = test system: pyogenic streptococcus 102; assay: Curative effect on mouse with abdominal infection (ED50); type: in vivo; conditions: pyogenic streptococcus 102, challenging dose 7.8 × 10^4 CFU/0.5 ml, deaths in 7 days, Bliss
Method: (§1) Test method: preparation of infection bacterial liquid: taking out the test bacterial liquid which is kept in a refrigerator at −80[…] to room temperature for about 1 h, then inoculating streptococcus pneumonia, pyogenic streptococcus and enterococcus absorbing 0.1 ml bacterial liquid respectively to 2 ml MH broth (add 10% inactivated horse serum), and inoculating 0.1 ml bacterial liquid of staphylococcus aureus to 2 ml MH broth according to the same method above; putting it in an incubator at 37[…] to be cultivated for 18 h, to obtain original bacterial liquid; diluting the original bacterial liquid with 5% gastric mucin to make animals infected with 100% lethal bacteria, to obtain infection bacterial liquid.
(§2) The clinical route of administration of carrimycin is proposed to be oral administration, thus intragastric administration is adopted in carrimychin test. Levoisovalerylspiramycin I (obtained in Embodiment 1) and of crystalline compound of levoisovalerylspiramycin I (prepared in Embodiment 27) are fed to animals via […].
(§3) After the mice are infected, respectively feed each mouse 0.2 ml via intragastric administration at 0.5 to 6 h, and they have no adverse reaction. Observe the number of deaths in 7 days, and calculate the 50% effective dose (ED50) of each drug for the infected mouse and compare the protective effect of drugs by Bliss program.

[2] = test system: pyogenic streptococcus 119; assay: as above; type: in vivo; conditions: pyogenic streptococcus 119, challenging dose 4.9 × 10^4 CFU/0.5 ml, deaths in 7 days, Bliss
Method: as §1, §2, §3

[3] = test system: pyogenic streptococcus 772; assay: as above; type: in vivo; conditions: pyogenic streptococcus 772, challenging dose 6.9 × 10^3 CFU/0.5 ml, deaths in 7 days, Bliss
Method: as §1, §2, §3

[4] = test system: streptococcus pneumoniae18; assay: as above; type: in vivo, streptococcus pneumoniae; conditions: streptococcus pneumoniae18, challenging dose 9.6 × 10^4 CFU/0.5 ml, deaths in 7 days, Bliss
Method: as §1, §2, §3

[5] = test system: streptococcus pneumoniae57; assay: as above; type: in vivo, streptococcus pneumoniae; conditions: streptococcus pneumoniae57, challenging dose 8.8 × 10^4 CFU/0.5 ml, deaths in 7 days, Bliss
Method: as §1, §2, §3

[6] = test system: streptococcus pneumoniae3; assay: as above; type: in vivo, streptococcus pneumoniae; conditions: streptococcus pneumoniae3, challenging dose 6.4 × 10^4 CFU/0.5 ml, deaths in 7 days, Bliss
Method: as §1, §2, §3

12 strains of bacteria = assay: Protective effect on mouse infected with 12 strains of bacteria; type: in vivo; conditions: in words
Method: as §1, §2, §3

staphylococcus aureus16 [7] = assay: Curative effect on mouse with abdominal infection (ED50); type: in vivo, staphylococcus aureus; conditions: staphylococcus aureus16, challenging dose 5.2 × 10^3 CFU/0.5 ml, deaths in 7 days, Bliss
Method: as §1, §2, §3

staphylococcus aureus12 [8] = assay: as above; type: in vivo, staphylococcus aureus; conditions: staphylococcus aureus12, challenging dose 4.8 × 10^4 CFU/0.5 ml, deaths in 7 days, Bliss
Method: as §1, §2, §3

staphylococcus aureus76 [9] = assay: as above; type: in vivo, staphylococcus aureus; conditions: staphylococcus aureus76, challenging dose 5.8 × 10^4 CFU/0.5 ml, deaths in 7 days, Bliss
Method: as §1, §2, §3

staphylococcus aureus21 [10] = assay: as above; type: in vivo, staphylococcus aureus; conditions: staphylococcus aureus21, challenging dose 4.2 × 10^4 CFU/0.5 ml, deaths in 7 days, Bliss
Method: as §1, §2, §3

enterococcus32 [11] = assay: as above; type: in vivo, enterococcus; conditions: enterococcus32, challenging dose 5.4 × 10^4 CFU/0.5 ml, deaths in 7 days, Bliss
Method: as §1, §2, §3

[12] = test system: streptococcus pneumoniae18; assay: MIC against the infecting test organism; type: cell-based, streptococcus pneumoniae
staphylococcus aureus76 [13] = assay: MIC against the infecting test organism; type: cell-based, staphylococcus aureus
S. epidermidis (115) = assay: Clinical isolates, agar double dilution method; type: cell-based
[14] = test system: hemophilus influenzae (37); assay: Clinical isolates, agar double dilution method; type: cell-based
gonococcus (10) = assay: Clinical isolates, agar double dilution method; type: cell-based
staphylococcus aureus12 [15] = assay: MIC against the infecting test organism; type: cell-based, staphylococcus aureus
enterococcus32 [16] = assay: MIC against the infecting test organism; type: cell-based, enterococcus
staphylococcus aureus21 [17] = assay: MIC against the infecting test organism; type: cell-based, staphylococcus aureus
[18] = test system: streptococcus pneumoniae57; assay: MIC against the infecting test organism; type: cell-based, streptococcus pneumoniae
[19] = test system: pyogenic streptococcus 119; assay: MIC against the infecting test organism; type: cell-based
[20] = test system: pyogenic streptococcus 772; assay: MIC against the infecting test organism; type: cell-based
[21] = test system: Chlamydia Trachomatis D/UW-3/Cx; assay: Chlamydia in vitro MIC, McCoy cells, immunofluorescence; type: cell-based; conditions: 48 hours
[22] = test system: pyogenic streptococcus (93); assay: Clinical isolates, agar double dilution method; type: cell-based
[23] = test system: Chlamydia Trachomatis B/TW-5/OT; assay: Chlamydia in vitro MIC, McCoy cells, immunofluorescence; type: cell-based; conditions: 48 hours
[24] = test system: staphylococcus aureus (155); assay: Clinical isolates, agar double dilution method; type: cell-based
[25] = test system: Mycoplasma Urealyticum and Mycoplasma Pneumoniae strains; assay: Mycoplasma in vitro MIC (U-PPLO broth); type: cell-based; conditions: determined 4 times, final MIC (24 h)
Method: 1. Test methods: adding U-PPLO 0.8 ml to each pore of aseptic 12-pore cell culture plate (adding 0.9 ml to inoculum control pore and 1.0 ml to medium control pore).
2. Add 10^4CCU/ml Uu inoculum 0.1 ml to each experimental pore. The final dose in the pore is 10^3CCU/ml (the medium control pore will not be added with inoculum).
3. Divide into 3 groups (100 μg/ml, 10 μg/ml and 1 μg/ml antibiotic stock solution), Use aseptic Tip to add antibiotic for test to each pore: 100 μl, 50 μl, 25 μl, 12.5 μl according to the double degradation concentration gradient. (The inoculum and medium control pores will not be added with the antibiotic, and meanwhile the antibiotic control pore is arranged.)
4. Blend all pores evenly. Seal the culture plate by tapes and place it in a 37[…] box for culture.
5. On 17-24 hours after the test, observe and record the Uu growth situation. When Uu inoculum control pore presents a positive growth, the minimal antibiotic concentration, which can suppress the growth of Uu, is the MIC of sample.

staphylococcus aureus16 [26] = assay: MIC against the infecting test organism; type: cell-based, staphylococcus aureus
[27] = test system: Chlamydia Pneumoniae CWL-029; assay: Chlamydia in vitro MIC, HEp-2 cells, immunofluorescence; type: cell-based; conditions: Chlamydia Pneumoniae CWL-029, HEp-2 cells, 72 hours
enterococcus (106) = assay: Clinical isolates, agar double dilution method; type: cell-based
[28] = test system: pyogenic streptococcus 102; assay: MIC against the infecting test organism; type: cell-based
[29] = test system: streptococcus pneumoniae3; assay: MIC against the infecting test organism; type: cell-based, streptococcus pneumoniae
[30] = test system: streptococcus pneumoniae (112); assay: Clinical isolates, agar double dilution method; type: cell-based
[31] = in vivo; cited from earlier work

## COC1C(O)CC(=O)OC(C)C/C=C/C=C/C(OC2CCC(N(C)C)C(C)O2)C(C)CC(CC=O)C1OC1OC(C)C(OC2CC(C)(O)C(OC(=O)CC(C)C)C(C)O2)C(N(C)C)C1O (stereo not drawn) [crystal of isovalerylspiramycin I, levoisovalerylspiramycin I]
[1]
  ED50: 60.99 mg/kg
[2]
  ED50: 54.58 mg/kg
[3]
  ED50: 23.37 mg/kg
[4]
  ED50: 8.65 mg/kg
[5]
  ED50: 12.82 mg/kg
[6]
  ED50: 8.39 mg/kg
12 strains of bacteria; listed as crystalline compound of isovalerylspiramycin I
  protective effect (curative effect) on infected mouse: better protective effect
Staphylococcus aureus16 [7]
  ED50: 21.33 mg/kg
Staphylococcus aureus12 [8]
  ED50: 107.46 mg/kg
Staphylococcus aureus76 [9]
  ED50: 22.26 mg/kg
Staphylococcus aureus21 [10]
  ED50: 38.00 mg/kg
enterococcus32 [11]
  ED50: 62.11 mg/kg

## COC1C(OC(C)=O)CC(=O)OC(C)C/C=C/C=C/C(OC2CCC(N(C)C)C(C)O2)C(C)CC(CC=O)C1OC1OC(C)C(OC2CC(C)(O)C(OC(=O)CC(C)C)C(C)O2)C(N(C)C)C1O (stereo not drawn) [crystal of isovalerylspiramycin II, levoisovalerylspiramycin II]
[1]
  ED50: 58.00 mg/kg
[2]
  ED50: 49.94 mg/kg
[3]
  ED50: 21.90 mg/kg
[4]
  ED50: 8.09 mg/kg
[5]
  ED50: 12.04 mg/kg
[6]
  ED50: 7.69 mg/kg
12 strains of bacteria
  protective effect (curative effect) on infected mouse: good protective effect
Staphylococcus aureus16 [7]
  ED50: 16.18 mg/kg
Staphylococcus aureus12 [8]
  ED50: 104.67 mg/kg
Staphylococcus aureus76 [9]
  ED50: 18.71 mg/kg
Staphylococcus aureus21 [10]; listed as crystal of isovalcrylspiramycin II
  ED50: 36.09 mg/kg
enterococcus32 [11]
  ED50: 56.16 mg/kg

## CCC(=O)OC1CC(=O)OC(C)C/C=C/C=C/C(OC2CCC(N(C)C)C(C)O2)C(C)CC(CC=O)C(OC2OC(C)C(OC3CC(C)(O)C(OC(=O)CC(C)C)C(C)O3)C(N(C)C)C2O)C1OC (stereo not drawn) [crystal of isovalerylspiramycin III, levoisovalerylspiramycin III]
[1]
  ED50: 52.91 mg/kg
[2]; listed as crystal of isovaletylspiramycin III
  ED50: 49.94 mg/kg
[3]
  ED50: 22.81 mg/kg
[4]
  ED50: 8.68 mg/kg
[5]
  ED50: 11.08 mg/kg
[6]
  ED50: 6.45 mg/kg
12 strains of bacteria
  protective effect (curative effect) on infected mouse: good protective effect
Staphylococcus aureus16 [7]
  ED50: 19.29 mg/kg
Staphylococcus aureus12 [8]
  ED50: 105.24 mg/kg
Staphylococcus aureus76 [9]
  ED50: 18.71 mg/kg
Staphylococcus aureus21 [10]
  ED50: 36.09 mg/kg
enterococcus32 [11]
  ED50: 65.89 mg/kg

## acetyl spiramycin [reference compound]
[12]
  MIC: 0.06 µg/mL
Staphylococcus aureus76 [13]
  MIC: 1 µg/mL
S. epidermidis (115)
  MIC50: 64 µg/mL
  MIC90: >64 µg/mL
[14]
  MIC50: 0.12 µg/mL
  MIC90: 4 µg/mL
Gonococcus (10)
  MIC50: 4 µg/mL
  MIC90: 8 µg/mL
  MIC range: 0.12 to 64 µg/mL
[1]
  ED50: 227.07 mg/kg
[2]
  ED50: 117.53 mg/kg
[3]
  ED50: 98.11 mg/kg
Staphylococcus aureus12 [15]
  MIC: 2048 µg/mL
enterococcus32 [16]
  MIC: 1 µg/mL
[4]
  ED50: 37.93 mg/kg
[5]
  ED50: 398.01 mg/kg
[6]
  ED50: 66.96 mg/kg
Staphylococcus aureus21 [17]
  MIC: 2048 µg/mL
[18]
  MIC: 1 µg/mL
[19]
  MIC: 0.5 µg/mL
[20]
  MIC: 0.25 µg/mL
[21]
  MIC: 2 µg/mL
[22]
  MIC50: 0.25 µg/mL
  MIC90: >64 µg/mL
[23]
  MIC: 4 µg/mL
[24]
  MIC50: 64 µg/mL
  MIC90: >64 µg/mL
[25]
  MIC: 0.5 µg/mL
Staphylococcus aureus16 [26]
  MIC: 1 µg/mL
Staphylococcus aureus16 [7]
  ED50: 43.58 mg/kg
Staphylococcus aureus12 [8]
  ED50: >500 mg/kg
Staphylococcus aureus76 [9]
  ED50: 66.63 mg/kg
Staphylococcus aureus21 [10]
  ED50: >500 mg/kg
[27]
  MIC: 0.5 µg/mL
Enterococcus (106)
  MIC50: 4 µg/mL
  MIC90: >64 µg/mL
enterococcus32 [11]
  ED50: 130.34 mg/kg
[28]
  MIC: 0.5 µg/mL
[29]
  MIC: 0.5 µg/mL
[30]
  MIC50: 0.12 µg/mL
  MIC90: >64 µg/mL

## spiramycin
[31]
  absolute bioavailability by oral administration: 30˜40%
